Read-outs that look alike come from different tables or passages of the source.

One test deals with wild type HIV RT (Human immunodeficiency virus type 1 group M subtype B, UniProt P04585). As to the kind of experiment: IC50 against wild-type HIV reverse transcriptase. It is filed as biochemical. The procedure:
Compounds of the invention were tested against the wild-type and four mutant HIV reverse transcriptases. The results are listed in Table 1 and Table 2 as EC50 (nM) and IC50 (nM). In Tables 1 and 2, A represents <50 nM, B is between 50 and 100 nM, and C is >100 nM. ND is not determined. […]

For the next test, the system named is wild-type (WT) HIV. Description: EC50 against wild-type HIV. In kind it is cell-based.
Where [1] appears, read: Table 2, wild-type, read-out: EC50 WT.
Setting [2] is: Human immunodeficiency virus 1, read-out: EC50 WT (nM).
[3] abbreviates: Human immunodeficiency virus 1, read-out: EC50 WT.

For the compound `NS(=O)(=O)c1ccc(NC(=O)CSc2nnc(Br)n2-c2c(Cl)cc(C3CCC3)c3ccccc23)c(Cl)c1` (single isomer, unassigned) [Compound 68], at wild type HIV RT (Table 2, wild-type RT), the IC50 was < 50 nM. Moreover, the concentration giving a half-maximal response (EC50) in the test with wild-type (WT) HIV (setting [1]) was < 50 nM.

With `NS(=O)(=O)c1ccc(NC(=O)CSc2nnc(Br)n2-c2c(Cl)cc(C3CCC3)c3ccccc23)c(Cl)c1` (single isomer, unassigned) [Compound 69], the concentration for half-maximal inhibition (IC50) against wild type HIV RT (Table 2, wild-type RT) is < 50 nM. Also, in the test on wild-type (WT) HIV (setting [1]), the EC50 is < 50 nM.

In the case of `COc1ccc2c(C)ccc(-n3c(Br)nnc3SCC(=O)Nc3ccc(C(=O)O)cc3Cl)c2c1` [Compound 15], the IC50 against wild type HIV RT (Table 1, wild-type RT) is < 50 nM. Further, the EC50 with wild-type (WT) HIV (setting [2]) was < 50 nM.

In the case of `Cc1cc(C2CC2)cc(Cl)c1-n1c(Br)nnc1SCC(=O)Nc1ccc(C(=O)O)cc1Cl` [Compound 20], the half-maximal inhibitory concentration (IC50) on wild type HIV RT (Table 1, wild-type RT) was < 50 nM. In the test on wild-type (WT) HIV (setting [2]), the half-maximal effective concentration (EC50) was < 50 nM.

On to `CC(Sc1nnc(Br)n1-c1ccc(C2CC2)c2ccccc12)C(=O)Nc1ccc(S(N)(=O)=O)cc1Cl` (centres unmarked) [Compound 44], for which the IC50 on wild type HIV RT (Table 2, wild-type RT) is < 50 nM. The half-maximal effective concentration (EC50) in the test on wild-type (WT) HIV (setting [3]) was < 50 nM.

Take `NS(=O)(=O)c1ccc(NC(=O)CSc2nnc(Br)n2-c2ccc(C3CC3)c3ccccc23)c(Cl)c1` [Compound 45]: the 50% inhibitory concentration (IC50) at wild type HIV RT (Table 2, wild-type RT) is < 50 nM. Also, the half-maximal effective concentration (EC50) with wild-type (WT) HIV (setting [1]) was < 50 nM.

In the case of `NS(=O)(=O)c1ccc(NC(=O)CSc2nnc(Br)n2-c2ccc(C3CC3)cc2)c(Cl)c1` [Compound 46], the half-maximal inhibitory concentration (IC50) at wild type HIV RT (Table 2, wild-type RT) was < 50 nM. Also, in the test on wild-type (WT) HIV (setting [3]), the EC50 is < 50 nM.

On to `CC(=O)OC(C)OC(=O)NS(=O)(=O)c1ccc(NC(=O)CSc2nnc(Br)n2-c2ccc(C3CC3)c3ccccc23)c(Cl)c1` (centres unmarked) [Compound 47], for which, on wild type HIV RT (Table 2, wild-type RT), the IC50 was < 50 nM. For the same compound, the EC50 in the test with wild-type (WT) HIV (setting [1]) was < 50 nM.

On to `CC(=O)NS(=O)(=O)c1ccc(NC(=O)CSc2nnc(Br)n2-c2ccc(C3CC3)c3ccccc23)c(Cl)c1` [Compound 48], for which the concentration for half-maximal inhibition (IC50) against wild type HIV RT (Table 2, wild-type RT) was < 50 nM. Moreover, in the test on wild-type (WT) HIV (setting [1]), the 50% effective concentration (EC50) is < 50 nM.

For `CCc1ccc(-n2c(Br)nnc2SCC(=O)Nc2ccc(S(N)(=O)=O)cc2Cl)c2c1CCCC2` [Compound 50], on wild type HIV RT (Table 2, wild-type RT), the IC50 is < 50 nM. Further, the EC50 in the test on wild-type (WT) HIV (setting [1]) was < 50 nM.

Regarding `Cc1cc(S(N)(=O)=O)ccc1NC(=O)CSc1nnc(Br)n1-c1ccc(C)c2c1CCCC2` [Compound 51], the IC50 against wild type HIV RT (Table 2, wild-type RT) was < 50 nM. Besides, the EC50 in the test on wild-type (WT) HIV (setting [1]) is < 50 nM.

As to `Cc1ccc2c(C)ccc(-n3c(Br)nnc3SCC(=O)Nc3ccc(S(N)(=O)=O)cc3Br)c2c1` [Compound 52], the half-maximal inhibitory concentration (IC50) at wild type HIV RT (Table 2, wild-type RT) was < 50 nM. In addition, the concentration giving a half-maximal response (EC50) with wild-type (WT) HIV (setting [1]) is < 50 nM.

On to `Cc1cc(C)c2ccccc2c1-n1c(CF)nnc1SCC(=O)Nc1ccc(S(N)(=O)=O)cc1Cl` [Compound 53], for which the 50% inhibitory concentration (IC50) against wild type HIV RT (Table 2, wild-type RT) is < 50 nM. The EC50 in the test with wild-type (WT) HIV (setting [1]) was < 50 nM.

Turning to `Cc1cc(C)c(-n2c(SCC(=O)Nc3ccc(S(N)(=O)=O)cc3Cl)nnc2C(F)(F)F)c2c1CCCC2` [Compound 54], at wild type HIV RT (Table 2, wild-type RT), the half-inhibitory concentration (IC50) was < 50 nM. Moreover, the EC50 in the test with wild-type (WT) HIV (setting [3]) was < 50 nM.

Take `CCCc1ccc(-n2c(Br)nnc2SCC(=O)Nc2ccc(S(N)(=O)=O)cc2Cl)c2ccccc12` [Compound 55]: at wild type HIV RT (Table 2, wild-type RT), the IC50 is < 50 nM. In addition, in the test on wild-type (WT) HIV (setting [1]), the half-maximal effective concentration (EC50) is < 50 nM.

In the case of `CCCc1ccc(-n2c(Br)nnc2SCC(=O)Nc2ccc(S(N)(=O)=O)cc2C)c2ccccc12` [Compound 56], the 50% inhibitory concentration (IC50) at wild type HIV RT (Table 2, wild-type RT) was < 50 nM. Besides, the 50% effective concentration (EC50) in the test with wild-type (WT) HIV (setting [1]) was < 50 nM.

In the case of `CCc1ccc(-n2c(Br)nnc2SCC(=O)Nc2ccc(S(N)(=O)=O)cc2Cl)c2ccccc12` [Compound 57], at wild type HIV RT (Table 2, wild-type RT), the half-inhibitory concentration (IC50) is < 50 nM. The EC50 in the test on wild-type (WT) HIV (setting [1]) was < 50 nM.

Take `CCCC(=O)NS(=O)(=O)c1ccc(NC(=O)CSc2nnc(Br)n2-c2ccc(C3CC3)c3ccccc23)c(Cl)c1` [Compound 58]: the concentration for half-maximal inhibition (IC50) on wild type HIV RT (Table 2, wild-type RT) was < 50 nM. Moreover, the EC50 with wild-type (WT) HIV (setting [3]) is < 50 nM.

Consider `N[C@@H](CC(=O)NS(=O)(=O)c1ccc(NC(=O)CSc2nnc(Cl)n2-c2ccc(C3CC3)c3ccccc23)c(Cl)c1)C(=O)O` [Compound 59], for which the IC50 on wild type HIV RT (Table 2, wild-type RT) is < 50 nM. The concentration for a half-maximal effect (EC50) in the test on wild-type (WT) HIV (setting [1]) was < 50 nM.

Regarding `NCCC[C@@H](N)C(=O)NS(=O)(=O)c1ccc(NC(=O)CSc2nnc(Br)n2-c2ccc(C3CC3)c3ccccc23)c(Cl)c1` [Compound 60], on wild type HIV RT (Table 2, wild-type RT), the IC50 is < 50 nM. Besides, the EC50 in the test on wild-type (WT) HIV (setting [1]) was < 50 nM.

As for `Cc1cc(C2CC2)ccc1-n1c(Br)nnc1SCC(=O)Nc1ccc(S(N)(=O)=O)cc1Cl` [Compound 61], in the test with wild-type (WT) HIV (setting [1]), the EC50 is < 50 nM.

For `NCCC(N)C(=O)NS(=O)(=O)c1ccc(NC(=O)CSc2nnc(Br)n2-c2ccc(C3CC3)c3ccccc23)c(Cl)c1` (centres unmarked) [Compound 62], the concentration for half-maximal inhibition (IC50) against wild type HIV RT (Table 2, wild-type RT) is < 50 nM. Further, the EC50 with wild-type (WT) HIV (setting [1]) is < 50 nM.

With `N[C@@H](CC(=O)NS(=O)(=O)c1ccc(NC(=O)CSc2nnc(Br)n2-c2ccc(C3CC3)c3ccccc23)c(Cl)c1)C(=O)O` [Compound 63], at wild type HIV RT (Table 2, wild-type RT), the 50% inhibitory concentration (IC50) is < 50 nM. Further, in the test with wild-type (WT) HIV (setting [1]), the EC50 was < 50 nM.

For the compound `N[C@@H](CCC(=O)NS(=O)(=O)c1ccc(NC(=O)CSc2nnc(Br)n2-c2ccc(C3CC3)c3ccccc23)c(Cl)c1)C(=O)O` [Compound 64], the IC50 on wild type HIV RT (Table 2, wild-type RT) was < 50 nM. In addition, the EC50 in the test with wild-type (WT) HIV (setting [1]) was < 50 nM.

Take `NS(=O)(=O)c1ccc(NC(=O)CSc2nnc(Cl)n2-c2ccc(C3CC3)c3ccccc23)c(Cl)c1` [Compound 65]: on wild type HIV RT (Table 2, wild-type RT), the half-maximal inhibitory concentration (IC50) is < 50 nM. The EC50 in the test with wild-type (WT) HIV (setting [1]) is < 50 nM.

`NS(=O)(=O)c1ccc(NC(=O)CSc2nnc(Br)n2-c2ccc(C3CC3)cc2OC(F)(F)F)c(Cl)c1` [Compound 66]: the IC50 on wild type HIV RT (Table 2, wild-type RT) was < 50 nM. Also, in the test with wild-type (WT) HIV (setting [3]), the EC50 was < 50 nM.

Take `COCCC(=O)NS(=O)(=O)c1ccc(NC(=O)CSc2nnc(Br)n2-c2ccc(C3CC3)c3ccccc23)c(Cl)c1` [Compound 67]: the IC50 on wild type HIV RT (Table 2, wild-type RT) is < 50 nM. Moreover, in the test on wild-type (WT) HIV (setting [3]), the EC50 is < 50 nM.

For the compound `Cc1cc(C2CC2)cc(Cl)c1-n1c(Br)nnc1SCC(=O)Nc1ccc(S(N)(=O)=O)cc1Cl` [Compound 70], the IC50 on wild type HIV RT (Table 2, wild-type RT) is < 50 nM. The EC50 in the test on wild-type (WT) HIV (setting [3]) was < 50 nM.

As to `O=C(O)CCC(=O)NS(=O)(=O)c1ccc(NC(=O)CSc2nnc(Br)n2-c2ccc(C3CC3)c3ccccc23)c(Cl)c1` [Compound 71], the IC50 against wild type HIV RT (Table 2, wild-type RT) is < 50 nM. Further, in the test with wild-type (WT) HIV (setting [1]), the EC50 lay within 50 to 100 nM.

For `Cc1cc(S(N)(=O)=O)ccc1NC(=O)CSc1nnc(Br)n1-c1ccc(C2CCC2)c2ccccc12` [Compound 72], the IC50 against wild type HIV RT (Table 2, wild-type RT) is < 50 nM. The EC50 in the test on wild-type (WT) HIV (setting [3]) is < 50 nM.

`NS(=O)(=O)c1ccc(NC(=O)CSc2nnc(Br)n2-c2ccc(C3CCC3)c3ccccc23)c(Cl)c1` [Compound 73]: at wild type HIV RT (Table 2, wild-type RT), the concentration for half-maximal inhibition (IC50) is < 50 nM. Further, the EC50 in the test on wild-type (WT) HIV (setting [1]) was < 50 nM.

Take `CCCCC(=O)NS(=O)(=O)c1ccc(NC(=O)CSc2nnc(Br)n2-c2ccc(C3CC3)c3ccccc23)c(Cl)c1` [Compound 74]: the half-maximal inhibitory concentration (IC50) against wild type HIV RT (Table 2, wild-type RT) was < 50 nM. Moreover, the EC50 in the test on wild-type (WT) HIV (setting [1]) is < 50 nM.

As for `CCCCCC(=O)NS(=O)(=O)c1ccc(NC(=O)CSc2nnc(Br)n2-c2ccc(C3CC3)c3ccccc23)c(Cl)c1` [Compound 75], the IC50 at wild type HIV RT (Table 2, wild-type RT) was < 50 nM. The half-maximal effective concentration (EC50) in the test with wild-type (WT) HIV (setting [1]) is < 50 nM.

At wild type HIV RT (Table 2, wild-type RT), `N#Cc1cccc2c(-n3c(SCC(=O)Nc4ccc(S(N)(=O)=O)cc4Cl)nnc3C(F)F)cccc12` [Compound 76] registered a half-inhibitory concentration (IC50) of 50 to 100 nM. In addition, the EC50 with wild-type (WT) HIV (setting [3]) is < 50 nM.

Regarding `Cc1cc(S(N)(=O)=O)ccc1NC(=O)CSc1nnc(C(F)F)n1-c1cccc2c(C#N)cccc12` [Compound 77], the concentration for half-maximal inhibition (IC50) on wild type HIV RT (Table 2, wild-type RT) is > 100 nM.
